Data reported in patent US20240209036A1, “PEPTIDES AND METHODS OF USE” (priority 2021, published 2024).
Several values for one entry are separate records, joined by “and”; a condition that tells them apart may be missing. Equal entries are not always repeated. Ends that are not written are not given here.

Tests used:
[1] = system: cecal ligation and puncture (CLP) rat model of intestinal necrosis; test: Cecal ligation and puncture (CLP) survival model; assay type: in vivo; conditions: for survival, multi-dose regimen: CLP rats, 40 mg/kg at 0.5, 24, 48 and 72 hours after surgery
Protocol: The previously established CLP model was utilized with modifications. Male Long-Evans rats (250-300 grams) were induced using 5% isoflurane with oxygen and anesthesia was maintained by isoflurane delivered via nose cone at 1.5-2% with oxygen. Adequate anesthesia was confirmed with a toe pinch. The surgical area (lower abdominal quadrants) was shaved, cleaned with 10% iodine and subsequently cleaned with 70% ethanol for a total of three times. For pain management, buprenorphine-SR (1 mg/kg) was given subcutaneously pre-op. For the surgical procedure, animals were in the supine position with their heads oriented away from the operator. After placing a sterile drape, a longitudinal midline incision (approximately 3-4 cm) was made with a sterile scalpel. After the initial incision, small scissors were used to enter the peritoneal cavity. The linea alba of the abdominal musculature was dissected away for intermuscular incision of fascial and peritoneal layers. The cecum was located and exteriorized, the remainder of the bowel was left in the peritoneal cavity. The mesentery of the cecum was dissected away with care taken to avoid damage to the cecal branch of the ileocecal artery and avoid bleeding complications. The cecum was ligated at 75% using sterile 3-0 non-absorbable suture. The cecum was perforated twice by through-and-through punctures using a sterile 18-gauge needle midway between the ligation and the tip of the cecum in a mesenteric-to-antimesenteric direction. The cecum was relocated into the abdominal cavity. The peritoneum was closed using 4-0 non-absorbable sutures and the skin was closed with sterile metallic wound clips. The animals received 5 mL of prewarmed (37° C.) normal saline subcutaneously for recovery. […] The peptide, consisting of the amino acid sequence […] (SEQ ID NO: 2) with a monodisperse, 24mer polyethylene glycol (PEG) tail, was manufactured by PolyPeptide Group (San Diego, CA) to >95% purity as verified by HPLC and mass spectrometry analysis. Lyophilized RLS-0071 was solubilized in 0.05 M Histidine buffer and pH adjusted to 6.5. […] Animals were monitored every 30 minutes for at least two hours post-surgery. Once bright, alert, and responsive, the animals were placed back into their home cage. A quantitative assessment of morbidity was conducted on the animals twice a day for the duration of the study. (Shrum, B., Anantha, R. V., Xu, S. X. et al. A robust scoring system to evaluate sepsis severity in an animal model. BMC Res Notes 7, 233 (2014). https://doi.org/10.1186/1756-0500-7-233). Scoring criteria included appearance, level of consciousness, activity, response to stimulus, eyes open vs. closed, respiration rate and respiration quality. […] The animals were subsequently monitored at a minimum of twice/day. […]

[2] = system: free DNA in plasma (biomarker for NETs); test: Plasma free DNA by PicoGreen in CLP rats; assay type: in vivo, rat; conditions: single dose RLS-0071, 24 hours post-surgery
Protocol: (§1) Blood samples were collected before surgery (pre-bleed) and 24 hours after surgery. Plasma was isolated from the blood and analyzed for free DNA concentration and cytokines levels as described below.
Free DNA was measured by PicoGreen in rat plasma samples as previously described Briefly, plasma samples were diluted in 10 mM Tris-HCl, 1 mM EDTA, pH 8.0 (TE) buffer and 50 uL of each sample was added to the wells along with 50 uL of a 1:200 dilution of PicoGreen (Life Technologies, Carlsbad, CA, USA) and incubated at room temperature for 10 minutes, protected from light. A DNA standard curve was prepared in TE buffer. The fluorescence was then read at an excitation wavelength of 485 nm and an emission wavelength of 520 nm using a BioTek microplate reader. All free DNA measurements were done in triplicate.

IL-6 = test: Plasma IL-6 ELISA in CLP rats; assay type: in vivo, rat; conditions: single dose RLS-0071, 24 hours post-surgery
Protocol: as §1
The Rat IL-6 ELISA was purchased from R&D Systems. Plasma samples from experimental animals were run according to the manufacturer's instructions. Briefly, diluted rat plasma samples were added to wells pre-coated with capture IL-6 antibodies overnight. The plate was blocked for 60 min at room temperature with 1% BSA. 100 uL of plasma samples (diluted 1:4) or standards was added to the plate and incubated at room temperature for 2 hrs, then any unbound components were removed by washing. Next, 100 μL of detection IL-6 antibody (diluted 1:60) was added and incubated for 2 hrs at room temperature and washed. Next, 100 μL of streptavidin-horseradish peroxidase (HIRP) conjugate (diluted 1:40) was added and incubated in the dark for 20 minutes at room temperature. Following washing, 100 μL of 3,3′,5,5′-tetramethylbenzidine (TMB) substrate was added for approximately 5 minutes at room temperature. The reaction was stopped with the addition of 100 μL of sulfuric acid and absorbance measured at 450 nm using a BioTek microplate reader. Sample concentrations were calculated using an IL-6 standard curve made with 1:2 serial dilutions.

complement system = conditions: previously demonstrated in vitro assays; cited from earlier work

Substance	survival, multi-dose regimen [1]	level of free DNA in blood compared to animals not receiving treatment [2]	IL-6 level in blood compared with no-rescue-intervention animals (IL-6)	inhibition of the complement system (complement system)	survival ([1]; male Long-Evans rats, 75% CLP, single dose 40 mg/kg i.v. 30 minutes after surgery, assessed up to 5 days, 40 mg/kg)	increase in survival compared to no-rescue treatment group ([1]; single dose 40 mg/kg i.v. 30 minutes after surgery)
IALILEP(Sar)CCQERAA (IALILEPXCCQERAA; sarcosine at position 8; MOD_RES (8)..(8) Sarcosine) [RLS-0088, PA peptide with isoleucine at position 8 replaced by sarcosine]	increase in survival	–	–	–	–	–
IALILEPICCQERAA-PEG24 (IALILEPICCQERAA-dPEG24; cysteine pairing not given here) [RLS-0071, 15 amino acid peptide with a C-terminal monodisperse 24-mer PEGylated moiety]	significant increase in survival	reduction in the level of free DNA	reduction in IL-6	strong inhibition of the complement system	80% and 50%	2.5 fold
